Test results taken from patent US8912163B2, “Compositions for the treatment or prophylaxis of viral infections” (Katholieke Universiteit Leuven, priority 2007, dated 2014).
≈ marks a conversion by molar mass, not a printed value. Read-outs that look alike come from different tables or passages of the source.

Experiments:
Water-solubility by HPLC = type: physicochemical; conditions: deionised water, room temperature; for solubility: thermodynamic from solid
Protocol: HPLC was carried out on a Waters 484 System using Novapack C18 reverse phase column. Flow rate: 1 mL/min. Detection: UV 254 nm. […] The samples were centrifuged at 14.000 rpm in an Eppendorf micro-centrifuge for 1.5 min at room temperature. An aliquot of the clear supernatant was removed and diluted to a concentration within the range of a five-point standard curve. Water-solubility was calculated from each peak area of the above solution by HPLC compared with the sample dissolved in acetonitrile, the concentration of which is already known.

VZV TK+ YS = experiment: VZV plaque reduction in HEL cells, TK+ strain YS; type: cell-based, Varicella Zoster virus; conditions: 5 days
Protocol: (§1) VZV-drug susceptibility assays were performed on confluent HEL cells in 96-well microtiter plates. Monolayers were infected with 20 PFU of cell-associated virus per well. For each assay, virus controls (infected-untreated cells) were included. After a 2-hour incubation period, the virus inoculum was removed and the media replaced by the different dilutions (in duplicate) of the tested molecules. Serial dilutions of test compounds were incubated with the infected monolayers for 5 days. After the 5-day incubation period, the cells were fixed and stained with Giemsa, and the level of virus-induced cytopathic effect was determined by counting the number of plaques for each dilution.

VZV TK+ OKA = experiment: VZV plaque reduction in HEL cells, TK+ strain OKA; type: cell-based, Varicella Zoster virus
Protocol: as §1

VZV TK− 07/1 = experiment: VZV plaque reduction in HEL cells, TK- strain 07/1; type: cell-based, Varicella Zoster virus
Protocol: as §1

in vitro = type: cell-based; conditions: human
HEL cells = experiment: in vitro; type: cell-based
VZV = experiment: Anti-VZV activity in VZV-infected HEL cell cultures (general statements); type: cell-based, Varicella Zoster virus; conditions: HEL cells
Protocol: The objective of this study was to compare the antiviral activity of Compounds 1, 3, 5, 7 and 9 in HEL cells inoculated with VZV strains. Antiviral activity was assessed as the ability of Compounds 1, 3, 5, 7 and 9 to reduce viral plaque formation after incubation periods of 5 days as compared to untreated control cultures.
as §1

[1] = Oral bioavailability in mice: Compound 1 in plasma after single oral gavage; type: in vivo; conditions: for Compound 1 in plasma (area under the curve (HPLC)): dose equivalent to 25 mg/kg of Compound 1, relative peak area
From the text: The results of this study are shown in Table 1 below and in FIG. 1 of the accompanying drawings.

purified CD26 = purified CD26 (Homo sapiens, UniProt P27487); experiment: Conversion (substrate activity) by purified CD26; type: biochemical; conditions: purified CD26 (1.5 mU in PBS), 37° C.
Sequence of purified CD26 (P27487 whole entry, species assumed): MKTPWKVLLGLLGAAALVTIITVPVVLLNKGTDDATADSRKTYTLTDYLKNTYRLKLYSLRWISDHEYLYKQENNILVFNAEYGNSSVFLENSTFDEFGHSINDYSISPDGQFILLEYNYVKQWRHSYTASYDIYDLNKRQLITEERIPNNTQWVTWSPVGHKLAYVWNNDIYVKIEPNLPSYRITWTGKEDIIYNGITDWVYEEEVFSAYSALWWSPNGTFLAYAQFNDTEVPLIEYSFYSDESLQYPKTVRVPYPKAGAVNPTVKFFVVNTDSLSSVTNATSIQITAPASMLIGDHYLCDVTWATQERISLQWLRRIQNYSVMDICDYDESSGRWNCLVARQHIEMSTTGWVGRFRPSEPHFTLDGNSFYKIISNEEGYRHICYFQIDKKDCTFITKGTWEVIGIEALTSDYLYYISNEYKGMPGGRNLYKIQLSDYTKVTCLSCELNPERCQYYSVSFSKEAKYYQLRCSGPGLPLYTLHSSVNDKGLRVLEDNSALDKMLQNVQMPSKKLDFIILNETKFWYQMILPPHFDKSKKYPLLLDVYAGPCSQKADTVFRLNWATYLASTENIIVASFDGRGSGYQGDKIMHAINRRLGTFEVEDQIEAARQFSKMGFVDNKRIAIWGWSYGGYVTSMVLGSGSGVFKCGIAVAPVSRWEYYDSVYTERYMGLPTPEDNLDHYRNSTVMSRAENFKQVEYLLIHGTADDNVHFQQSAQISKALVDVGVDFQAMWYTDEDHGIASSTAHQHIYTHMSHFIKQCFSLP
Protocol: (§2) A variety of test compounds have been evaluated for their substrate activity against purified CD26, human serum (HS), and bovine serum (BS) in Eppendorf tubes. The 400 μL reaction mixture contained 50 μM of test compound in PBS (containing 0.1% DMSO). The reaction was started by the addition of purified CD26 (1.5 mU) or 20% of HS (in PBS) or BS (in PBS) at 37° C. At different time points, 100 μL was withdrawn from the reaction mixture, added to 200 μL methanol, and put on ice for ˜10 min. Then, the mixture was centrifuged at 13,000 rpm for 5 min at 4° C. and 250 μL of supernatant was analyzed by HPLC on a reverse phase RP-8 column, using following gradients: […]
(§3) Gradient A (Buffer A: 50 mM NaH2PO4+5 mM heptane-sulfonic acid pH 3.2; buffer B: acetonitrile): 2 min 98% A+2% B; 6 min linear gradient to 80% A+20% B; 2 min linear gradient to 75% A+25% B; 2 min linear gradient to 65% A+35% B; 18 min linear gradient to 50% A+50% B; 5 min 50% A+50% B; 5 min linear gradient to 98% A+2% B; 5 min equilibration at 98% A+2% B.
(§4) Gradient B: 2 min 98% A+2% B; 6 min linear gradient to 80% A+20% B; 2 min linear gradient to 75% A+25% B; 2 min linear gradient to 65% A+35% B; 8 min linear gradient to 50% A+50% B; 10 min 50% A+50% B; 10 min linear gradient to 20% A+80% B; 5 min 20% A+80% B; 15 min linear gradient to 98% A+2% B; 5 min 98% A+2% B.

[2] = Conversion in bovine serum (10%); type: in vitro ADME; conditions: Bovine serum 10% in PBS, 37° C.
Protocol: as §2, with “The reaction was started by the addition of purified CD26 (1.5 mU) or 20% of HS (in PBS) or BS (in PBS) at 37° C.” left out
as §3, §4

[3] = Conversion in human serum (10%); type: in vitro ADME; conditions: Human serum 10% in PBS, 37° C.
Protocol: as §2, with “The reaction was started by the addition of purified CD26 (1.5 mU) or 20% of HS (in PBS) or BS (in PBS) at 37° C.” left out
as §3, §4

[4] = overnight, means of three determinations
[5] = Human alphaherpesvirus 3, HEL, 120 h, Table 3b, plaque formation
[6] = Human alphaherpesvirus 3, HEL, 120 h, read-out: EC50 VZV TK+ OKA, Table 3b, plaque formation, 5 days
[7] = Human alphaherpesvirus 3, HEL, 120 h, read-out: EC50 VZV TK− 07/1, Table 3b, plaque formation, 5 days

Compound: CCCCCc1ccc(-c2cc3cn([C@H]4CC(O)[C@@H](CO)O4)c(=O)nc3o2)cc1 (stereo partly drawn) [Compound 1, reference compound]
- Solubility in water (Water-solubility by HPLC; [4]): 22 ± 7 µg/mL (≈ 55.2 µM)
- solubility (Water-solubility by HPLC; read-out: water-solubility): 22 µg/mL (≈ 55.2 µM)

Compound: CCCCCc1ccc(-c2cc3cn([C@H]4CC(OC(=O)C(N)C(C)C)[C@@H](CO)O4)c(=O)nc3o2)cc1 (stereo partly drawn) [Compound 3, 3-[2′-Deoxy-3′-O-valyl-β-D-ribofuranosyl]-6-(p-pentylphenyl)-2,3-dihydrofuro[2,3-d]pyrimidin-2-one, reference compound]
- EC50 (VZV TK+ YS; [5]): 4 nM
- EC50 (VZV TK+ OKA; [6]): 7 nM
- antiviral activity against VZV/TK− (in words) (VZV TK− 07/1): lose antiviral activity
- EC50 (VZV TK− 07/1; [7]): > 5000 nM
- CC50 (in vitro): > 5000 nM
- cytotoxic or cytostatic (in words) (HEL cells): Neither of them is cytotoxic or cytostatic
- MCC (HEL cells; human): 20 µM
- antiviral activity in VZV-infected HEL cell cultures (in words) (VZV): active

Compound: CCCCCc1ccc(-c2cc3cn([C@H]4CC(O)[C@@H](COC(=O)C(N)C(C)C)O4)c(=O)nc3o2)cc1 (stereo partly drawn) [Compound 5, reference compound]
- EC50 (VZV TK+ YS; Human alphaherpesvirus 3, HEL, 120 h, Table 3, plaque formation): 30 nM
- EC50 (VZV TK+ OKA; Human alphaherpesvirus 3, HEL, 120 h, read-out: EC50 VZV TK+ OKA, Table 3, plaque formation, 5 days): 14 nM
- antiviral activity against VZV/TK− (in words) (VZV TK− 07/1): lose antiviral activity
- EC50 (VZV TK− 07/1; Human alphaherpesvirus 3, HEL, 120 h, read-out: EC50 VZV TK− 07/1, Table 3, plaque formation, 5 days): > 1000 nM
- CC50 (in vitro): > 500 nM
- cytotoxic or cytostatic (in words) (HEL cells): Neither of them is cytotoxic or cytostatic
- MCC (HEL cells; human): >1 µM
- solubility (Water-solubility by HPLC; overnight, means of three determinations, read-out: Solubility in water): 211 ± 44 µg/mL (≈ 424 µM)
- antiviral activity in VZV-infected HEL cell cultures (in words) (VZV): active

Compound: CCCCCc1ccc(-c2cc3cn([C@H]4C[C@H](O)[C@@H](COC(=O)[C@@H](NC(=O)[C@@H]5CCCN5C(=O)[C@@H](N)C(C)C)C(C)C)O4)c(=O)nc3o2)cc1 [Compound 7]
- Compound 1 in plasma (area under the curve (HPLC)) ([1]; 15 min after oral gavage): 32
- Compound 1 in plasma (area under the curve (HPLC)) ([1]; 30 min after oral gavage): 52
- Compound 1 in plasma (area under the curve (HPLC)) ([1]; 45 min after oral gavage): 87
- Compound 1 in plasma (area under the curve (HPLC)) ([1]; 60 min after oral gavage): 44
- Compound 1 in plasma (area under the curve (HPLC)) ([1]; 120 min after oral gavage): 14
- Compound 1 in plasma (area under the curve (HPLC)) ([1]; 180 min after oral gavage): 6.2
- increase of the oral bioavailability of Compound 1 (as estimated by the AUC values) ([1]; oral gavage, versus dosing Compound 1): approximately 12 fold
- Formation of hydrolysis products (%): Compound 1 (purified CD26; 0 hr): 0%
- Formation of hydrolysis products (%): Compound 5 (purified CD26; 0 hr): 0%
- Formation of hydrolysis products (%): Compound 7 (purified CD26; 0 hr): 100%
- Formation of hydrolysis products (%): Compound 1 (purified CD26; 2 hr): 49.4%
- Formation of hydrolysis products (%): Compound 5 (purified CD26; 2 hr): 50.6%
- Formation of hydrolysis products (%): Compound 7 (purified CD26; 2 hr): 0%
- Formation of hydrolysis products (%): Compound 1 (purified CD26; 6 hr): 62.9%
- Formation of hydrolysis products (%): Compound 5 (purified CD26; 6 hr): 37.1%
- Formation of hydrolysis products (%): Compound 7 (purified CD26; 6 hr): 0%
- Formation of hydrolysis products (%): Compound 1 (purified CD26; 20 hr): 75.5%
- Formation of hydrolysis products (%): Compound 5 (purified CD26; 20 hr): 24.5%
- Formation of hydrolysis products (%): Compound 7 (purified CD26; 20 hr): 0%
- Formation of hydrolysis products (%): Compound 1 ([2]; 0 hr): 0%
- Formation of hydrolysis products (%): Compound 5 ([2]; 0 hr): 0%
- Formation of hydrolysis products (%): Compound 7 ([2]; 0 hr): 100%
- Formation of hydrolysis products (%): Compound 1 ([2]; 1 hr): 20.3%
- Formation of hydrolysis products (%): Compound 5 ([2]; 1 hr): 19.9%
- Formation of hydrolysis products (%): Compound 7 ([2]; 1 hr): 59.8%
- Formation of hydrolysis products (%): Compound 1 ([2]; 4 hr): 44.8%
- Formation of hydrolysis products (%): Compound 5 ([2]; 4 hr): 34.7%
- Formation of hydrolysis products (%): Compound 7 ([2]; 4 hr): 20.4%
- Formation of hydrolysis products (%): Compound 1 ([2]; 20 hr): 74.4%
- Formation of hydrolysis products (%): Compound 5 ([2]; 20 hr): 21%
- Formation of hydrolysis products (%): Compound 7 ([2]; 20 hr): 3.3%
- Formation of hydrolysis products (%): Compound 1 ([3]; 0 hr): 0%
- Formation of hydrolysis products (%): Compound 5 ([3]; 0 hr): 0%
- Formation of hydrolysis products (%): Compound 7 ([3]; 0 hr): 100%
- Formation of hydrolysis products (%): Compound 1 ([3]; 1 hr): 57.6%
- Formation of hydrolysis products (%): Compound 5 ([3]; 1 hr): 11.4%
- Formation of hydrolysis products (%): Compound 7 ([3]; 1 hr): 31%
- Formation of hydrolysis products (%): Compound 1 ([3]; 4 hr): 73.4%
- Formation of hydrolysis products (%): Compound 5 ([3]; 4 hr): 21.5%
- Formation of hydrolysis products (%): Compound 7 ([3]; 4 hr): 5.0%
- Formation of hydrolysis products (%): Compound 1 ([3]; 20 hr): 88.5%
- Formation of hydrolysis products (%): Compound 5 ([3]; 20 hr): 9.7%
- Formation of hydrolysis products (%): Compound 7 ([3]; 20 hr): 1.8%
- EC50 (VZV TK+ YS; Table 3, plaque formation): 10 nM
- EC50 (VZV TK+ OKA; Table 3, plaque formation, 5 days, read-out: EC50 VZV TK+ OKA): 12 nM
- antiviral activity against VZV/TK− (in words) (VZV TK− 07/1): lose antiviral activity
- EC50 (VZV TK− 07/1; Table 3, plaque formation, 5 days, read-out: EC50 VZV TK− 07/1): > 1000 nM
- CC50 (HEL cells): > 500 nM
- MCC (HEL cells): >1 µM
- cytotoxic or cytostatic (in words) (HEL cells): Neither of them is cytotoxic or cytostatic
- water-solubility (Water-solubility by HPLC): 1270 µg/mL
- water-solubility relative to Compound 1 (Water-solubility by HPLC): more than 57 fold
- Solubility in water (Water-solubility by HPLC; [4]): 1270 ± 50 µg/mL (≈ 1830 µM)
- antiviral activity in VZV-infected HEL cell cultures (in words) (VZV): found to be active

Compound: CCCCCc1ccc(-c2cc3cn(C4CC(OC(=O)C(NC(=O)C5CCCN5C(=O)C(N)C(C)C)C(C)C)C(CO)O4)c(=O)nc3o2)cc1 [Compound 9, 3-[2′-Deoxy-3′-O-(valyl-prolyl-valyl)-β-D-ribofuranosyl]-6-(p-pentylphenyl)-2,3-dihydrofuro[2,3-d]pyrimidin-2-one]
- EC50 (VZV TK+ YS; [5]): 16 nM
- EC50 (VZV TK+ OKA; [6]): 17 nM
- antiviral activity against VZV/TK− (in words) (VZV TK− 07/1): lose antiviral activity
- EC50 (VZV TK− 07/1; [7]): > 5000 nM
- CC50 (in vitro): > 5000 nM
- cytotoxic or cytostatic (in words) (HEL cells): Neither of them is cytotoxic or cytostatic
- MCC (HEL cells; human): 20 µM
- antiviral activity in VZV-infected HEL cell cultures (in words) (VZV): found to be active
